Reference: article PMC8910920 (International Journal of Molecular Sciences, 2022)

Key:
DRG sensory neurons = experiment: Current-clamp, membrane resting potential of DRG sensory neurons; type: cell-based, rat; conditions: 10 μM
Description: In order to test if compound RGM8-51 could affect the membrane resting potential (MRP) of DRG sensory neurons, we also measured MRP of sensory neurons in the current-clamp mode of patch-clamp.
Changes in membrane potential were studied in neonatal DRGs isolated from 3–5 days-old Wistar rats. After isolation, DRGs were digested first using collagenase type IA (0.25% w/v) in DMEM GlutaMax with penicillin/streptomycin (P/S) solution (1% v/v) for 1 h (37 °C, 5% CO2, ThermoScientific incubator) and secondly by mechanical dissociation. Single cell suspension was passed through a […] cell strainer and washed with DMEM GlutaMax with FBS (10%v/v) and P/S solution (1% v/v). […]
For current-clamp recordings from rat DRG neurons the intracellular pipette solution contained (in mM): 4 NaCl, 126 K gluconate, 0.02 CaCl2, 1 MgSO4, 5 HEPES, 15 glucose, 3 ATP, 0.1 GTP and 5 EGTA, pH 7.2 with KOH and the extracellular solution contained (in mM): 140 NaCl, 4 KCl, 2 CaCl2, 2 MgCl2, 10 HEPES, 5 glucose and 20 mannitol, pH 7.4 with NaOH. The membrane potential was measured in the absence and the presence of compound RGM8-51 at 10 μM in a time interval of 1 min.
Data analysis: For the whole-cell patch-clamp experiments, results are expressed as the percentage of remaining activation of the TRPM8 channel. […] All data are expressed as the mean ± standard error of the mean (SEM) (n = 5–8). […]

[1] = system: OXA-induced cold hypersensitivity in male mice; experiment: Oxaliplatin-induced peripheral neuropathy, acetone drop test; type: in vivo, mouse
Description: For the OXA-induced peripheral neuropathy assay, OXA was […] injected on days 1, 3 and 5 to male mice, at a 6 mg/kg dose, to induce hypersensitivity to cold, as monitored by the acetone drop test (Figure 6).
For the experiments, 6–8 weeks C57 male mice (≈30g) (Harlam, Holland) were used. All experiments were approved by the Institutional Animal and Ethical Committee of the Universidad Miguel Hernandez and Comunidad Valencian ethical committees (2021/VSC/PEA/0089) where experiments were conducted and they were in accordance with the guidelines of the Economic European Community and the Committee for Research and Ethical Issues of the International Association for the Study of Pain. All parts of the study concerning animal care were performed under the control of veterinarians. Experiments were performed blinded for NTG and compound treatment.
Oxaliplatin (OXA, Tocris, Bristol, UK) was used to induce peripheral neuropathy and was dissolved in water with gentle warming as formerly described. OXA was intraperitoneally injected on days 1, 3 and 5 at a 6 mg/kg dose. […] Cold chemical sensitivity was assessed using the acetone drop test. […] Positive nociceptive responses (licking time in seconds) were recorded with a digital stopwatch during 20 s (cut-off). Acetone was applied twice in an interval of 5 min between each application and the mean was calculated.

C[C@@H]1C(=O)N(C[C@H](Cc2ccccc2)N(Cc2ccccc2)Cc2ccccc2)[C@]1(Cc1ccccc1)C(=O)OC(C)(C)C [RGM8-51, 4(S)-Benzyl-3S-methyl-4-(tert-butoxy)carbonyl-1-[(2′S-dibenzylamino-3′-phenyl)prop-1′-yl]-2-oxoazetidine]
effect on membrane resting potential (MRP) (DRG sensory neurons): did not alter the MRP
OXA-induced cold hypersensitivity (cold-induced paw licking) ([1]; 0.1 µg i.pl., sustained activity from 15 to 30 min): still highly active
OXA-induced cold hypersensitivity (cold-induced paw licking) ([1]; 1 μg i.pl., significant at 15 min, peak effect from 30 to 60 min): attenuates the cold-induced paw licking in a significant manner
